Measurements: ChEMBL document CHEMBL4814018, “Rationally designed TNF-α inhibitors: Identification of promising cytotoxic agents” (Bioorg Med Chem Lett, 2021)
Activity calls are given as the source filed them. The calls are words filed in the database; no cut-off is given here.

Experiments:
UACC-257 [1] = experiment: Growth inhibition of human UACC-257 cells incubated for 48 hrs by sulforhodamine B assay; format: functional
BV-2 [2] = experiment: Antiinflammatory activity against mouse BV2 cells assessed as decrease in LPS-induced NO production at 1 to 5 uM pretreated with compound followed by LPS stimulation incubated for 4 to 48 hrs by enzyme immunoassay; format: functional, cell-based; conditions: dose 1-5 µM, time 4-48 hrs
OVCAR-5 [3] = experiment: Growth inhibition of human OVCAR-5 cells incubated for 48 hrs by sulforhodamine B assay; format: functional
UACC-62 [4] = experiment: Growth inhibition of human UACC-62 cells at 10 uM incubated for 48 hrs by sulforhodamine B assay relative to control; format: functional; conditions: read-out: GI
SK-MEL-2 [5] = experiment: Growth inhibition of human SK-MEL-2 cells at 10 uM incubated for 48 hrs by sulforhodamine B assay relative to control; format: functional; conditions: read-out: GI
HCT-116 [6] = experiment: Growth inhibition of human HCT-116 cells incubated for 48 hrs by sulforhodamine B assay; format: functional
NCI-H460 [7] = experiment: Growth inhibition of human NCI-H460 cells at 10 uM incubated for 48 hrs by sulforhodamine B assay relative to control; format: functional; conditions: read-out: GI
BV-2 [8] = experiment: Antiinflammatory activity against mouse BV2 cells assessed as reduction in LPS-induced IL6 production at 1 uM by enzyme immunoassay; format: functional, cell-based
SF-295 [9] = experiment: Growth inhibition of human SF-295 cells at 10 uM incubated for 48 hrs by sulforhodamine B assay relative to control; format: functional; conditions: read-out: GI
NCI-H226 [10] = experiment: Growth inhibition of human NCI-H226 cells incubated for 48 hrs by sulforhodamine B assay; format: functional
T47D [11] = experiment: Growth inhibition of human T47D cells at 10 uM incubated for 48 hrs by sulforhodamine B assay relative to control; format: functional; conditions: read-out: GI
MDA-MB-468 [12] = experiment: Growth inhibition of human MDA-MB-468 cells at 10 uM incubated for 48 hrs by sulforhodamine B assay relative to control; format: functional; conditions: read-out: GI
OVCAR-4 [13] = experiment: Growth inhibition of human OVCAR-4 cells incubated for 48 hrs by sulforhodamine B assay; format: functional
RPMI-8226 [14] = experiment: Growth inhibition of human RPMI-8226 cells incubated for 48 hrs by sulforhodamine B assay; format: functional; conditions: dose 10 µM
NCI-H226 [15] = experiment: Growth inhibition of human NCI-H226 cells at 10 uM incubated for 48 hrs by sulforhodamine B assay relative to control; format: functional; conditions: read-out: GI
CAKI-1 [16] = experiment: Growth inhibition of human CAKI-1 cells incubated for 48 hrs by sulforhodamine B assay; format: functional
RPMI-8226 [17] = experiment: Growth inhibition of human RPMI8226 cells at 10 uM incubated for 48 hrs by sulforhodamine B assay relative to control; format: functional; conditions: read-out: GI
SW-620 [18] = experiment: Growth inhibition of human SW-620 cells incubated for 48 hrs by sulforhodamine B assay; format: functional
IGROV-1 [19] = experiment: Growth inhibition of human IGROV-1 cells incubated for 48 hrs by sulforhodamine B assay; format: functional
OVCAR-3 [20] = experiment: Growth inhibition of human OVCAR-3 cells incubated for 48 hrs by sulforhodamine B assay; format: functional
HOP-92 [21] = experiment: Growth inhibition of human HOP-92 cells at 10 uM incubated for 48 hrs by sulforhodamine B assay relative to control; format: functional; conditions: read-out: GI
U-251 [22] = experiment: Growth inhibition of human U-251 cells at 10 uM incubated for 48 hrs by sulforhodamine B assay relative to control; format: functional; conditions: read-out: GI
TK-10 [23] = experiment: Growth inhibition of human TK-10 cells at 10 uM incubated for 48 hrs by sulforhodamine B assay relative to control; format: functional; conditions: read-out: GI
UO-31 [24] = experiment: Growth inhibition of human UO-31 cells at 10 uM incubated for 48 hrs by sulforhodamine B assay relative to control; format: functional; conditions: read-out: GI
CAKI-1 [25] = experiment: Growth inhibition of human CAKI-1 cells at 10 uM incubated for 48 hrs by sulforhodamine B assay relative to control; format: functional; conditions: read-out: GI
BV-2 [26] = experiment: Cytotoxicity against mouse BV2 cells incubated for 48 hrs by MTT assay; format: cell-based; conditions: BV-2, 48 h
NCI-H460 [27] = experiment: Growth inhibition of human NCI-H460 cells incubated for 48 hrs by sulforhodamine B assay; format: functional
IGROV-1 [28] = experiment: Growth inhibition of human IGROV-1 cells at 10 uM incubated for 48 hrs by sulforhodamine B assay relative to control; format: functional; conditions: read-out: GI
SK-MEL-2 [29] = experiment: Growth inhibition of human SK-MEL-2 cells incubated for 48 hrs by sulforhodamine B assay; format: functional
SR [30] = experiment: Growth inhibition of human SR cells incubated for 48 hrs by sulforhodamine B assay; format: functional
MDA-MB-468 [31] = experiment: Growth inhibition of human MDA-MB-468 cells incubated for 48 hrs by sulforhodamine B assay; format: functional
K562 [32] = experiment: Growth inhibition of human K562 cells at 10 uM incubated for 48 hrs by sulforhodamine B assay relative to control; format: functional; conditions: read-out: GI
SW-620 [33] = experiment: Growth inhibition of human SW-620 cells at 10 uM incubated for 48 hrs by sulforhodamine B assay relative to control; format: functional; conditions: read-out: GI
SR [34] = experiment: Growth inhibition of human SR cells at 10 uM incubated for 48 hrs by sulforhodamine B assay relative to control; format: functional; conditions: read-out: GI
OVCAR-4 [35] = experiment: Growth inhibition of human OVCAR-4 cells at 10 uM incubated for 48 hrs by sulforhodamine B assay relative to control; format: functional; conditions: read-out: GI
MDA-MB-231 [36] = experiment: Growth inhibition of human MDA-MB-231 cells at 10 uM incubated for 48 hrs by sulforhodamine B assay relative to control; format: functional; conditions: read-out: GI
UO-31 [37] = experiment: Growth inhibition of human UO-31 cells incubated for 48 hrs by sulforhodamine B assay; format: functional
UACC-62 [38] = experiment: Growth inhibition of human UACC-62 cells incubated for 48 hrs by sulforhodamine B assay; format: functional
UACC-257 [39] = experiment: Growth inhibition of human UACC-257 cells at 10 uM incubated for 48 hrs by sulforhodamine B assay relative to control; format: functional; conditions: read-out: GI
MDA-MB-231 [40] = experiment: Growth inhibition of human MDA-MB-231 cells incubated for 48 hrs by sulforhodamine B assay; format: functional
MCF7 [41] = experiment: Growth inhibition of human MCF7 cells at 10 uM incubated for 48 hrs by sulforhodamine B assay relative to control; format: functional; conditions: read-out: GI
OVCAR-5 [42] = experiment: Growth inhibition of human OVCAR-5 cells at 10 uM incubated for 48 hrs by sulforhodamine B assay relative to control; format: functional; conditions: read-out: GI
MCF7 [43] = experiment: Growth inhibition of human MCF7 cells incubated for 48 hrs by sulforhodamine B assay; format: functional
[44] = tested on: Panel NCI-60 (60 carcinoma cell lines); experiment: Growth inhibition of human Panel NCI-60 (60 carcinoma cell lines) incubated for 48 hrs by sulforhodamine B assay; format: functional
BV-2 [45] = experiment: Antiinflammatory activity against mouse BV2 cells assessed as inhibition of LPS-induced TNFalpha production at 1 uM by enzyme immunoassay; format: functional
K562 [46] = experiment: Growth inhibition of human K562 cells incubated for 48 hrs by sulforhodamine B assay; format: functional
OVCAR-3 [47] = experiment: Growth inhibition of human OVCAR-3 cells at 10 uM incubated for 48 hrs by sulforhodamine B assay relative to control; format: functional; conditions: read-out: GI
TK-10 [48] = experiment: Growth inhibition of human TK-10 cells incubated for 48 hrs by sulforhodamine B assay; format: functional
[49] = Therapeutic index, ratio of LC50 for human Panel NCI-60 (60 carcinoma cell lines) to GI50 for human Panel NCI-60 (60 carcinoma cell lines); format: functional
U-251 [50] = experiment: Growth inhibition of human U-251 cells incubated for 48 hrs by sulforhodamine B assay; format: functional
T47D [51] = experiment: Growth inhibition of human T47D cells incubated for 48 hrs by sulforhodamine B assay; format: functional
HCT-116 [52] = experiment: Growth inhibition of human HCT-116 cells at 10 uM incubated for 48 hrs by sulforhodamine B assay relative to control; format: functional; conditions: read-out: GI
SF-295 [53] = experiment: Growth inhibition of human SF-295 cells incubated for 48 hrs by sulforhodamine B assay; format: functional
HOP-62 [54] = experiment: Growth inhibition of human HOP-62 cells at 10 uM incubated for 48 hrs by sulforhodamine B assay relative to control; format: functional; conditions: read-out: GI
HOP-92 [55] = experiment: Growth inhibition of human HOP-92 cells incubated for 48 hrs by sulforhodamine B assay; format: functional
HOP-62 [56] = experiment: Growth inhibition of human HOP-62 cells incubated for 48 hrs by sulforhodamine B assay; format: functional
[57] = read-out: LC50 (the source's name)

For O=C1COCCN1c1ccc(NCc2cn(Cc3ccc(F)cc3)c3ccccc23)cc1, the GI50 (UACC-257 [1]) was 200 nM, the Activity (BV-2 [2]) was “Active” and the GI50 (OVCAR-5 [3]) was 40 nM. It also gave a CC50 (OVCAR-5 [3]; [57]) of over 100000 nM, an inhibition of growth at 10 µM (UACC-62 [4]) of 100% and an inhibition of growth at 10 µM (SK-MEL-2 [5]) of 100%. It also gave a GI50 (HCT-116 [6]) of 50 nM, a CC50 (HCT-116 [6]; [57]) of over 100000 nM and an inhibition of growth at 10 µM (NCI-H460 [7]) of 93%. The Activity (BV-2 [8]) was “Active”, the inhibition of growth at 10 µM (SF-295 [9]) was 90% and the GI50 (NCI-H226 [10]) was 40 nM. It also gave a CC50 (NCI-H226 [10]; [57]) of 1100 nM, an inhibition of growth at 10 µM (T47D [11]) of 99% and an inhibition of growth at 10 µM (MDA-MB-468 [12]) of 100%. It also gave a GI50 (OVCAR-4 [13]) of 150 nM, a GI50 (RPMI-8226 [14]) of 540 nM and an inhibition of growth at 10 µM (NCI-H226 [15]) of 100%. For the same compound, the GI50 (CAKI-1 [16]) was 20 nM, the CC50 (CAKI-1 [16]; [57]) was over 100000 nM and the inhibition of growth at 10 µM (RPMI-8226 [17]) was 98%. It also gave a GI50 (SW-620 [18]) of 480 nM, a GI50 (IGROV-1 [19]) of 30 nM and a CC50 (IGROV-1 [19]; [57]) of over 100000 nM. It also gave a GI50 (OVCAR-3 [20]) of 280 nM, an inhibition of growth at 10 µM (HOP-92 [21]) of 96% and an inhibition of growth at 10 µM (U-251 [22]) of 80%. It also gave an inhibition of growth at 10 µM (TK-10 [23]) of 100%, an inhibition of growth at 10 µM (UO-31 [24]) of 96% and an inhibition of growth at 10 µM (CAKI-1 [25]) of 100%. It also gave an IC50 (BV-2 [26]) of over 10000 nM, a GI50 (NCI-H460 [27]) of 120 nM and an inhibition of growth at 10 µM (IGROV-1 [28]) of 100%. The GI50 (SK-MEL-2 [29]) was 1200 nM, the GI50 (SR [30]) was 4500 nM and the GI50 (MDA-MB-468 [31]) was 20 nM. The CC50 (MDA-MB-468 [31]; [57]) was 500 nM, the inhibition of growth at 10 µM (K562 [32]) was 89% and the inhibition of growth at 10 µM (SW-620 [33]) was 87%. For the same compound, the inhibition of growth at 10 µM (SR [34]) was 68%, the inhibition of growth at 10 µM (OVCAR-4 [35]) was 100% and the inhibition of growth at 10 µM (MDA-MB-231 [36]) was 72%. For the same compound, the GI50 (UO-31 [37]) was 2750 nM, the GI50 (UACC-62 [38]) was 40 nM and the CC50 (UACC-62 [38]; [57]) was 800 nM. The inhibition of growth at 10 µM (UACC-257 [39]) was 100%, the GI50 (MDA-MB-231 [40]) was 3800 nM and the inhibition of growth at 10 µM (MCF7 [41]) was 100%. It also gave an inhibition of growth at 10 µM (OVCAR-5 [42]) of 100%, a GI50 (MCF7 [43]) of 110 nM and a GI50 [44] of 1310 nM. The TGI [44] was 15100 nM, the CC50 [44, 57] was 70800 nM and the Activity (BV-2 [45]) was “Active”. For the same compound, the GI50 (K562 [46]) was 1510 nM, the inhibition of growth at 10 µM (OVCAR-3 [47]) was 100% and the GI50 (TK-10 [48]) was 40 nM. For the same compound, the CC50 (TK-10 [48]; [57]) was over 100000 nM, the TI [49] was 54 and the GI50 (U-251 [50]) was 1410 nM. For the same compound, the GI50 (T47D [51]) was 70 nM, the inhibition of growth at 10 µM (HCT-116 [52]) was 96% and the GI50 (SF-295 [53]) was 1090 nM. For the same compound, the inhibition of growth at 10 µM (HOP-62 [54]) was 77%, the GI50 (HOP-92 [55]) was 1540 nM and the GI50 (HOP-62 [56]) was 1470 nM.
